Measurements: patent US7320890B2, “Soluble steroidal peptides for nucleic acid delivery” (University of Utah Research Foundation, priority 2001, dated 2008)
Where a SMILES comes first, the peptide text is derived from it. Where no end group is shown, it is not given here. The star is where a group is joined. Lithocholoyl = C[C@H](CCC(=O)*)[C@H]1CC[C@H]2[C@@H]3CC[C@@H]4C[C@H](O)CC[C@]4(C)[C@H]3CC[C@]12C

Legend:
plasmid DNA = experiment: Condensation of plasmid DNA (gel electrophoresis); format: physicochemical; conditions: 4.5% (w/v) glucose, phosphate buffer pH 8.0
Method: Various formulations of SSP/p2CMVmIL-12 were prepared as follows: 100 μL aliquots of SSP at various concentrations and pDNA (0.2 mg/ml) were prepared in 4.5% (w/v) glucose to bring the osmolality to 285-295 mOsm, and 1M phosphate buffer was used to bring the pH to 8.0 of both aliquots. SSP/pDNA complexes at various N/P ratios ranging from 0.5/1 (N/P) to 50/1 (N/P) were prepared by rapidly mixing contents of SSP aliquot in pDNA aliquots using a pipettor. N/P ratio was calculated by taking into account 3 nitrogens for each arginine in SSP, thereby resulting in 18 nitrogens for each SSP molecule. The SSP/pDNA complexes were incubated for 15 minutes at room temperature before electrophoresis.

[1] = test system: CT-26 colon adeno-carcinoma cells; experiment: Cytotoxicity MTT assay; conditions: SSP alone, amounts equivalent to those used in N/P ratios 20/1
Method: (§1) Cytotoxicity of SSP/p2CMVmIL-12 complexes prepared at different N/P ratios were assessed using an MTT assay. CT-26 colon adeno-carcinoma cells were grown and maintained in RPMI 1640 medium (GIBCO-BRL, Gaithersburg, Md.), which was supplemented with 10% fetal bovine serum (FBS), 100 U/ml penicillin, 100 U/ml streptomycin and 50 μg/ml gentamycin (all from Gibco-BRL, Gaithersburg, Md.) at 37° C. and humidified 5% CO2.
(§2) Briefly, CT-26 cell lines were seeded in 96 well plates at 4000 cells/well and incubated for 24 hours. After checking the cell confluency, which was over 80%, SSP/p2CMVmIL-12 complexes prepared at N/P ratios ranging from 5/1 to 100/1 were added to the cells at a dose of 0.15 μg pmIL-12/well. Following 48 hrs of incubation, 25 μl of 5 mg/ml 3-[4,5-dimethylthiazol-2-yl]-2,5-diphenyltetrazolium bromide (MTT, Sigma Chemical Co., St. Louis, Mo.) stock solution in phosphate buffered saline (PBS, Gibco-BRL) was poured into each well reaching a final concentration of 0.5 mg/ml MTT. The plate was then incubated at 37° C. in 5% CO2 for 4 hrs. The medium was removed and 150 μl of dimethyl sulfoxide (DMSO, Aldrich) was added to dissolve the formazan crystals. The plate was read spectrophotometrically at 570 nm in an ELISA plate reader. The relative cell viability was calculated as [Abs]sample/[Abs]control×100. […]

[2] = mouse, CT-26 colon adeno-carcinoma cells
Method: as §1, §2

[3] = test system: CT-26 colon carcinoma cell lines; experiment: In vitro transfection, luciferase activity; format: cell-based; conditions: CT-26 cells, controls without carrier conjugate or without plasmid
Method: SSP/pLuc and SSP/p2CMVmIL-12 complexes formulated at various N/P ratios in 5% (w/v) glucose were evaluated for their transfection efficiency in CT-26 colon carcinoma cell lines. In the case of luciferase gene controls, cells were lysed after transfection and the relative light units (RLU) and total protein concentration were determined. […] The transfection efficiency increased with the increase in N/P ratios but diminished slightly with ratios 50/1 and above which could possibly be due to cytotoxicity towards CT-26 cells. On visual inspection under light microscope some granulation of cells was found, and cytotoxicity tests indicate that above N/P ratios 50/1 the cell viability is reduced by about 80%, which would account for lower gene expression.
In case of pLuc, CT-26 cells were seeded in 12-well tissue culture plates at 1×10^5 cells per/well in 10% FBS containing RPMI 1640 media. Cells achieved 70% confluency within 24 hours, after which they were transfected with SSP/pDNA complexes prepared at different N/P ratios ranging from 5/1 to 50/1 as described above. […] Luciferase activity was measured in terms of relative light units (RLU) using 96 well plate Luminometer (Dynex Technologies Inc, Chantilly, Va.). The luciferase activity was monitored and integrated over a period of 30 secs. […]

CT-26 cells = experiment: Membrane permeabilization study (ethidium bromide staining, flow cytometry); format: cell-based; conditions: for levels of staining: pH 7.4; for cells stained (ethidium bromide fluorescence): 10 μM SSP
Method: Membrane permeabilization studies were performed to find out whether SSP was able to form pores through plasma membranes and whether this phenomenon had any pH dependence or not. SSP prepared according to Example 1 was used at micromolar concentrations on cells preincubated with ethidium bromide, which intercalates between the strands of dsDNA and causes it to fluoresce. Ethidium bromide on its own is a poor membrane permeant, however, if the membranes are permeabilized, it would rapidly cross the cytoplasm, accumulate in the nucleus, and bind to the cellular DNA. Its fluorescent property would allow us to thus find the extent to which permeabilization via SSP occurred.
The membrane permeabilization activity of SSP was determined using flow cytometry. CT-26 cells were grown overnight and at 70-80% confluency were trypsinized and centrifuged. Cells were washed several times in 1×PBS (pH 7.4) and eventually resuspended in it to make cell suspensions of 1×10^6 cells/ml. One microliter of ethidium bromide (10 mg/ml) was mixed in 0.5 ml of cell suspension aliquots and stored at 4° C. 15 minutes before use. The pH of cell suspensions was adjusted to values 5,6,7, or 8 using either 1N NaOH or 1N HCl solutions 5 minutes before starting the experiment. SSP was finally used to permeabilize the membranes at the same final concentration for pH studies or at different concentrations at pH 7.4. Temperature effects at 4° C. and 37° C. were also studied to find any temperature dependent differences in permeabilization. After 5 and 15 minutes incubation, the cell fluorescence intensity was measured using FACScan Analyzer (Becton Dickinson, Sunnyvale, Calif.), which has a single 15-mW argon (488 nm) laser light source. A 585 nm long pass filter was used to collect the emitted red fluorescence. The forward scatter, side scatter, and ethidium bromide fluorescence were simultaneously recorded with 10,000 cells at 300 events per second. The results were later analyzed using cell quest software provided by the same manufacturer. Histogram statistics were used to quantitatively determine the extent of permeabilization.

Compound	N/P ratio at which pDNA is condensed completely (plasmid DNA)	cytotoxicity (in words) [1]	viability at 48 h [2] [%]	transfection / gene expression (in words) [3]	levels of staining (CT-26 cells; 5 μM of SSP or above) [%]	levels of staining (CT-26 cells; 10 μM SSP and above) [%]	cells stained (ethidium bromide fluorescence) (CT-26 cells; pH 5 and 6, within 5 minutes)	cells stained (ethidium bromide fluorescence) (CT-26 cells; pH 5 and 6, within 5 minutes, listed as soluble steroidal peptide)	cells stained (ethidium bromide fluorescence) (CT-26 cells; pHs above the pKa of the imidazole ring of histidine (pKa=6.1), pH 7 and 8) [%]
CC(C)C[C@H](NC(=O)[C@H](CCCNC(=N)N)NC(=O)[C@H](CCCNC(=N)N)NC(=O)[C@H](CCCNC(=N)N)NC(=O)[C@H](CO)NC(=O)[C@H](CCCCNC(=O)CC[C@@H](C)[C@H]1CC[C@H]2[C@@H]3CC[C@@H]4C[C@H](O)CC[C@]4(C)[C@H]3CC[C@]12C)NC(=O)[C@H](Cc1c[nH]cn1)NC(=O)[C@H](CCCNC(=N)N)NC(=O)[C@H](CCCNC(=N)N)NC(=O)[C@H](CCCNC(=N)N)NC(=O)[C@H](Cc1ccc(O)cc1)NC(=O)[C@H](Cc1c[nH]cn1)NC(=O)[C@@H](N)Cc1c[nH]cn1)C(=O)N[C@@H](Cc1c[nH]cn1)C(=O)N[C@@H](Cc1c[nH]cn1)C(N)=O [SSP] (H-HHYRRRHK(Lithocholoyl)SRRRLHH-NH2; N-terminus and C-terminus assumed)	3/1	non-toxic	~75	did not give any gene expression	> 85	~100	over 97%	less than 25%	< 25
HHYRRRHKSRRRLHH [Peptide sequence, reference compound]				not effective					
